Measurements from ChEMBL document CHEMBL1145086, “Selectivity fields: comparative molecular field analysis (CoMFA) of the glycine/NMDA and AMPA receptors” (J Med Chem, 2003).
“And” between values parts separate entries of the source, which are not always exact repeats. Equal values may be shown once.

What was measured:
[1] = target: Glutamate receptor ionotropic, NMDA 1 (Rattus norvegicus, UniProt P35439); experiment: Binding selectivity towards N-methyl-D-aspartate glutamate receptor 1 was determined by using [3H]- glycine/NMDA
[2] = target: Glutamate receptor ionotropic, AMPA (Rattus norvegicus, UniProt P19490+P19491+P19492+P19493); experiment: Binding selectivity towards Ionotropic glutamate receptor AMPA was determined by using [3H]- AMPA; type: protein-complex assay

Structure (SMILES) | Ki [1] | Ki [2] [µM]
CCOC(=O)c1nc2c(=O)[nH]c3cc(Cl)c(N)cc3n2n1 | 4.8 µM | –
CCOC(=O)c1nc2c(O)nc3ccc(Cl)c(Cl)c3n2n1 | 4.8 µM | 4.9
CCOC(=O)c1nc2c(=O)[nH]c3cc(Cl)c(-n4ccc[n+]4C=O)cc3n2n1 | 19 µM | 1.9
CCOC(=O)c1cc2n(n1)C(C(=O)O)Nc1cc(Cl)c([N+](=O)[O-])cc1-2 (stereo not given) | 10.6 µM | 8.2
O=C(O)c1cc2n(n1)C(C(=O)O)Nc1cc(Cl)c(Cl)cc1-2 (stereo not given) | 0.16 µM | 2.4
O=C[n+]1cccn1-c1cc2c(cc1Cl)NC(C(=O)O)n1nc(C(=O)O)cc1-2 (stereo not given) | 8.2 µM | 0.27
O=C(O)c1cc2n(n1)C(C(=O)O)Nc1cc(Cl)c(-n3ccnc3)cc1-2 (stereo not given) | 8.3 µM | 0.14
O=C(O)c1nc2c(=O)[nH]c3cc(Cl)c(-n4ccnc4)cc3n2n1 | 33.5 µM | 0.14
O=C(O)c1nc2c(=O)[nH]c3cc(Cl)c(-n4cccn4)cc3n2n1 | 0.86 µM and 5.3 µM | 0.86
CCOC(=O)c1nc2c(O)nc3cc(Cl)c([N+](=O)[O-])cc3n2n1 | 10.2 µM | –
CCOC(=O)c1nc2c(O)nc3cc(Cl)c(-n4cccn4)cc3n2n1 | 23 µM | 18.4
CCOC(=O)c1cc2n(n1)C(C(=O)O)Nc1cc(Cl)c(-n3ccc[n+]3C=O)cc1-2 (stereo not given) | 57 µM | 1.4
O=C[n+]1cccn1-c1cc2c(cc1Cl)[nH]c(=O)c1nc(C(=O)O)nn12 | 28 µM | 0.53
Nc1cc2c(cc1Cl)nc(O)c1nc(C(=O)O)nn12 | 3.6 µM | –
O=C(O)c1cc2n(n1)C(C(=O)O)Nc1cc(Cl)c([N+](=O)[O-])cc1-2 (stereo not given) | 1.1 µM | 0.74
O=C(O)c1cc2n(n1)C(C(=O)O)Nc1ccccc1-2 (stereo not given) | 1.41 µM | 12.4
CCOC(=O)c1cc2n(n1)C(C(=O)O)Nc1ccccc1-2 (stereo not given) | 33.3 µM | 42
O=C(O)c1cc2n(n1)C(C(=O)O)Nc1cc(Cl)ccc1-2 (stereo not given) | 0.48 µM | 2.3
CCOC(=O)c1cc2n(n1)C(C(=O)O)Nc1cc(Cl)ccc1-2 (stereo not given) | 26.5 µM | 72
